We go through 26 compounds from patent US20260137677A1, “PROTACS USEFUL AGAINST THE MAIN PROTEASE SARS-COV-2” (Tocris Cookson Limited, priority 2022, published 2026).

SMILES strings stand for the structures. Some results are limits rather than exact numbers.

For test [1], the target named is T1, recombinant SARS-CoV-2 main protease (Mpro) (Severe acute respiratory syndrome coronavirus 2, UniProt P0DTD1).
T1 construct: the main protease (Mpro; also called 3CLpro) which has an essential role in processing the polyproteins
The experiment in a line: biochemical. Particulars: FRET assay, Mpro 50 nM, substrate 10 μM.

In test [2] the test system is SARS-CoV-2 (SARS-CoV2/ZG/297-20) in Vero E6 cells. The experiment in a line: microbe, parasite or virus in culture. Particulars: for inhibition at 10 µM / inhibition at 50 µM: Severe acute respiratory syndrome coronavirus 2, Vero C1008, 72 h; for inhibition at 10 µM: read-out: Antiviral Activity 10 uM; for inhibition at 50 µM: read-out: Antiviral Activity 50 uM; for EC50: Severe acute respiratory syndrome coronavirus 2, Vero C1008, Vero E6 infected with SARS-CoV-2 at an MOI of 0.05, read-out: EC50 in antiviral assay. In kind it is cell-based.

For `C[C@@H](NC(=O)[C@H](c1cccnc1)N(C(=O)c1ccco1)c1ccc(-c2ccccc2)cc1)c1cccc(OCCCCOc2cccc3c2C(=O)N(C2CCC(=O)NC2=O)C3=O)c1` (stereo partly shown) [TS325F1], the IC50 in test [1] is < 10 µM.
Consider `O=C1CCC(N2C(=O)c3cccc(OCCOCCOCCOCCNC(=O)c4ccc5cncc(N6C(=O)NC7(CC(c8ccccc8Cl)C7)C6=O)c5c4)c3C2=O)C(=O)N1` (stereo not shown) [Compound C10778S, 4-(2-(2-chlorophenyl)-6,8-dioxo-5,7-diazaspiro[3.4]octan-7-yl)-N-(2-(2-(2-(2-((2-(2,6-dioxopiperidin-3-yl)-1,3-dioxoisoindolin-4-yl)oxy)ethoxy)ethoxy)ethoxy)ethyl)isoquinoline-6-carboxamide], for which the IC50 in test [1] was < 0.1 µM. In addition, in test [2], the inhibition at 10 µM is < 25% and the inhibition at 50 µM was > 75%.
As for `O=C1CCC(N2C(=O)c3cccc(OCCNC(=O)c4ccc5cncc(N6C(=O)NC7(CC(c8ccccc8Cl)C7)C6=O)c5c4)c3C2=O)C(=O)N1` (stereo not shown) [Compound C10778P, 4-(2-(2-chlorophenyl)-6,8-dioxo-5,7-diazaspiro[3.4]octan-7-yl)-N-(2-((2-(2,6-dioxopiperidin-3-yl)-1,3-dioxoisoindolin-4-yl)oxy)ethyl)isoquinoline-6-carboxamide], the IC50 in test [1] was < 0.1 µM. In test [2], the inhibition at 10 µM was > 75%, the inhibition at 50 µM was > 75% and the EC50 came to 4.9 µM.
On to `O=C1CCC(N2C(=O)c3cccc(OCCCCCCC(=O)Nc4cccn([C@@H](CC5CC5)C(=O)N[C@@H](C[C@@H]5CCNC5=O)C(=O)C(=O)NCc5ccccc5)c4=O)c3C2=O)C(=O)N1` (stereo partly shown) [BT150], for which the IC50 in test [1] was < 1 µM. In test [2], the inhibition at 10 µM is < 25% and the inhibition at 50 µM was < 25%.
For the compound `C[C@@H](NC(=O)[C@H](c1cccnc1)N(C(=O)c1ccco1)c1ccc(-c2ccccc2)cc1)c1cccc(OCCCCCCCCOc2cccc3c2C(=O)N(C2CCC(=O)NC2=O)C3=O)c1` (stereo partly shown) [TS339F2], the 50% inhibitory concentration (IC50) in test [1] fell in the range of 10 to 25 µM.
For the compound `O=C1CCC(N2C(=O)c3ccc(N4CCN(CC5CCN(C(=O)[C@H](NC(=O)[C@@H](c6cccnc6)N(C(=O)c6ccco6)c6ccc(-c7ccccc7)cc6)c6ccccc6)CC5)CC4)cc3C2=O)C(=O)N1` (single isomer, unassigned) [TS470], the IC50 in test [1] is < 0.1 µM. For the same compound, in test [2], the inhibition at 10 µM was < 25% and the inhibition at 50 µM was < 50%.
The corresponding values for `O=C1CCC(N2C(=O)c3cccc(NCCOCCNC(=O)C(NC(=O)[C@@H](c4cccnc4)N(C(=O)c4ccco4)c4ccc5c(c4)oc4ccccc45)c4ccccc4)c3C2=O)C(=O)N1` (mixture of isomers) [TS312F1] are < 10 µM, < 0% and < 0%.
`O=C(COc1ccc(C2CCC(=O)NC2=O)cc1)NCCCCNC(=O)[C@H](NC(=O)[C@@H](c1cccnc1)N(C(=O)c1ccco1)c1ccc(-c2ccccc2)cc1)c1ccccc1` (single isomer, unassigned) [TS477]: the IC50 in test [1] was < 0.1 µM. Moreover, in test [2], the inhibition at 10 µM is < 0% and the inhibition at 50 µM is < 0%.
Turning to `C[C@@H](NC(=O)[C@H](c1cccnc1)N(C(=O)c1ccco1)c1ccc(-c2ccccc2)cc1)c1cccc(OCCOc2cccc3c2C(=O)N(C2CCC(=O)NC2=O)C3=O)c1` (stereo partly shown) [TS338F1], the concentration for half-maximal inhibition (IC50) in test [1] is 10 to 25 µM.
Regarding `Cc1ncsc1-c1ccc(CNC(=O)[C@@H]2C[C@@H](O)CN2C(=O)[C@@H](NC(=O)C2(F)CC2)C(C)(C)C)c(OCCNC(=O)[C@@H](NC(=O)C(c2cccnc2)N(C(=O)c2ccco2)c2ccc3c(c2)oc2ccccc23)c2ccccc2)c1` (stereo partly shown) [TS347F1], the IC50 in test [1] is < 10 µM.
Regarding `O=C1CCC(N2C(=O)c3ccc(NCCOCCOCCNC(=O)[C@H](NC(=O)[C@@H](c4cccnc4)N(C(=O)c4ccco4)c4ccc(-c5ccccc5)cc4)c4ccccc4)cc3C2=O)C(=O)N1` (single isomer, unassigned) [TS464], in test [1], the IC50 is < 1 µM. For the same compound, in test [2], the inhibition at 10 µM was < 0% and the inhibition at 50 µM is < 25%.
Regarding `O=C(COc1ccc(C2CCC(=O)NC2=O)cc1)NCCCCCNC(=O)c1ccc2cncc(N3C(=O)NC4(CC(c5ccccc5Cl)C4)C3=O)c2c1` (stereo not shown) [Compound C10778R, 4-(2-(2-chlorophenyl)-6,8-dioxo-5,7-diazaspiro[3.4]octan-7-yl)-N-(5-(2-(4-(2,6-dioxopiperidin-3-yl)phenoxy)acetamido)pentyl)isoquinoline-6-carboxamide], in test [1], the IC50 was < 0.1 µM. In test [2], the inhibition at 10 µM was > 75%, the inhibition at 50 µM was > 75% and the EC50 amounted to 4.9 µM.
Regarding `O=C1CCC(N2C(=O)c3cccc(OCCCCNC(=O)c4ccc5cncc(N6C(=O)NC7(CC(c8ccccc8Cl)C7)C6=O)c5c4)c3C2=O)C(=O)N1` (stereo not shown) [Compound C107780, 4-(2-(2-chlorophenyl)-6,8-dioxo-5,7-diazaspiro[3.4]octan-7-yl)-N-(4-((2-(2,6-dioxopiperidin-3-yl)-1,3-dioxoisoindolin-4-yl)oxy)butyl)isoquinoline-6-carboxamide], the IC50 in test [1] was < 0.1 µM. In test [2], the inhibition at 10 µM is < 25% and the inhibition at 50 µM is > 75%.
Take `O=C1CCC(N2C(=O)c3cccc(NCCNC(=O)[C@H](NC(=O)[C@@H](c4cccnc4)N(C(=O)c4ccco4)c4ccc(-c5ccccc5)cc4)c4ccccc4)c3C2=O)C(=O)N1` (mixture of isomers) [TS449F1]: in test [1], the 50% inhibitory concentration (IC50) was < 0.1 µM. In test [2], the inhibition at 10 µM is < 0% and the inhibition at 50 µM was < 0%.
Turning to `O=C1CCC(N2C(=O)c3ccc(NCCOCCNC(=O)[C@H](NC(=O)[C@@H](c4cccnc4)N(C(=O)c4ccco4)c4ccc(-c5ccccc5)cc4)c4ccccc4)cc3C2=O)C(=O)N1` (single isomer, unassigned) [TS462], the IC50 in test [1] was < 1 µM. Moreover, in test [2], the inhibition at 10 µM is < 25% and the inhibition at 50 µM is < 25%.
On to `O=C1CCC(N2C(=O)c3cccc(NCCOCCNC(=O)[C@@H](NC(=O)[C@@H](c4cccnc4)N(C(=O)c4ccco4)c4ccc(-c5ccccc5)cc4)c4ccccc4)c3C2=O)C(=O)N1` (single isomer, unassigned) [TS453F1b], for which the IC50 in test [1] is < 1 µM. For the same compound, in test [2], the inhibition at 10 µM was < 0% and the inhibition at 50 µM is < 0%.
As to `O=C1CCC(N2C(=O)c3cccc(OCCNC(=O)c4ccc5c(N6C(=O)NC7(CC(c8ccccc8Cl)C7)C6=O)cncc5c4)c3C2=O)C(=O)N1` (stereo not shown) [Compound C10778V, 4-(2-(2-chlorophenyl)-6,8-dioxo-5,7-diazaspiro[3.4]octan-7-yl)-N-(2-((2-(2,6-dioxopiperidin-3-yl)-1,3-dioxoisoindolin-4-yl)oxy)ethyl)isoquinoline-7-carboxamide], the IC50 in test [1] is < 0.1 µM. In addition, in test [2], the inhibition at 10 µM was < 25% and the inhibition at 50 µM is < 25%.
`O=C1CCC(N2C(=O)c3cccc(NCCCCCNC(=O)C(NC(=O)[C@@H](c4cccnc4)N(C(=O)c4ccco4)c4ccc5c(c4)oc4ccccc45)c4ccccc4)c3C2=O)C(=O)N1` (mixture of isomers) [TS301F1]: the IC50 in test [1] fell in the range of 10 to 25 µM. In addition, in test [2], the inhibition at 10 µM was < 0% and the inhibition at 50 µM is < 0%.
As to `O=C1CCC(N2C(=O)c3cccc(NCCOCCOCCOCCNC(=O)[C@H](NC(=O)[C@@H](c4cccnc4)N(C(=O)c4ccco4)c4ccc(-c5ccccc5)cc4)c4ccccc4)c3C2=O)C(=O)N1` (mixture of isomers) [TS455F1], the IC50 in test [1] was < 0.1 µM. Also, in test [2], the inhibition at 10 µM is < 0% and the inhibition at 50 µM is < 0%.
In the case of `O=C1CCC(N2C(=O)c3ccc(NCCOCCOCCOCCNC(=O)[C@H](NC(=O)[C@@H](c4cccnc4)N(C(=O)c4ccco4)c4ccc(-c5ccccc5)cc4)c4ccccc4)cc3C2=O)C(=O)N1` (single isomer, unassigned) [TS465], in test [1], the IC50 was < 0.1 µM. Further, in test [2], the inhibition at 10 µM is < 25% and the inhibition at 50 µM is < 50%.
For `O=C1CCC(N2C(=O)c3ccc(NCCCCCCNC(=O)c4ccc5cncc(N6C(=O)NC7(CC(c8ccccc8Cl)C7)C6=O)c5c4)cc3C2=O)C(=O)N1` (stereo not shown) [Compound C10778Q, 4-(2-(2-chlorophenyl)-6,8-dioxo-5,7-diazaspiro[3.4]octan-7-yl)-N-(6-((2-(2,6-dioxopiperidin-3-yl)-1,3-dioxoisoindolin-5-yl)amino)hexyl)isoquinoline-6-carboxamide], in test [1], the IC50 was < 1 µM. Further, in test [2], the inhibition at 10 µM is < 0% and the inhibition at 50 µM was < 25%.
On to `O=C(COc1ccc(C2CCC(=O)NC2=O)cc1)NCCCCCNC(=O)c1ccc2c(N3C(=O)NC4(CC(c5ccccc5Cl)C4)C3=O)cncc2c1` (stereo not shown) [Compound C10778X, 4-(2-(2-chlorophenyl)-6,8-dioxo-5,7-diazaspiro[3.4]octan-7-yl)-N-(5-(2-(4-(2,6-dioxopiperidin-3-yl)phenoxy)acetamido)pentyl)isoquinoline-7-carboxamide], for which the IC50 in test [1] is < 0.1 µM. Further, in test [2], the inhibition at 10 µM is < 0% and the inhibition at 50 µM is < 0%.
With `C[C@H](NC(=O)[C@@H](c1cccnc1)N(C(=O)c1ccco1)c1ccc(-c2ccccc2)cc1)c1ccccc1OCCCCOc1cccc2c1C(=O)N(C1CCC(=O)NC1=O)C2=O` (stereo in doubt) [TS355F1], the 50% inhibitory concentration (IC50) in test [1] is < 10 µM.
On to `Cc1ncsc1-c1ccc(CNC(=O)[C@@H]2C[C@@H](O)CN2C(=O)[C@@H](NC(=O)C2(F)CC2)C(C)(C)C)c(OCCCCCCNC(=O)[C@@H](NC(=O)C(c2cccnc2)N(C(=O)c2ccco2)c2ccc3c(c2)oc2ccccc23)c2ccccc2)c1` (stereo partly shown) [TS349F1], for which the IC50 in test [1] is < 10 µM.
With `C[C@@H](NC(=O)C(c1cccnc1)N(C(=O)c1ccco1)c1ccc(-c2ccccc2)cc1)c1cccc(OCCCCOc2cccc3c2C(=O)N(C2CCC(=O)NC2=O)C3=O)c1` (stereo partly shown) [TS325F2], the IC50 in test [1] was < 10 µM.
On to `O=C1CCC(N2C(=O)c3cccc(NCCOCCOCCNC(=O)[C@@H](NC(=O)C(c4cccnc4)N(C(=O)c4ccco4)c4ccc5c(c4)oc4ccccc45)c4ccccc4)c3C2=O)C(=O)N1` (stereo partly shown) [TS302F1], for which, in test [1], the IC50 was < 10 µM.

The term IC50 denotes the concentration at which inhibition is half-maximal. As usually defined, the EC50 is the concentration giving half of the maximal effect.
